We go through 18 compounds from patent US12274264B2, “Piperonylic acid derivative and application thereof” (SHENYANG SINOCHEM AGROCHEMICALS R&D CO., LTD., priority 2019, dated 2025).

Read-outs that look alike come from different tables or passages of the source.

Common to all, as to type: in vivo
The subject of data set [1] is Tribolium confusum adults. Nature of the data set: Determination of Tribolium confusum adults (treated feeding bran, 72 h). The conditions noted are these: for mortality at 600 µg/mL: 600 mg/L, read-out: mortality rates against Tribolium confusum adults; for mortality at 5 µg/mL / mortality at 20 µg/mL: read-out: Mortality (%) against Tribolium Confusum Adults. As to the method:
(§1) According to the solubility of test compounds, the compounds are dissolved with acetone or dimethyl sulfoxide, and then diluted with 0.1% Tween 80 solution to form a required concentration of 50 ml test liquid. The content of the acetone or the dimethyl sulfoxide in the total solution is not more than 10%.
The test liquid was prepared in the order from low dose to high dose according to the test design. Then, the liquid of different concentrations was added to feeding bran and uniformly stirred, and dried in the shade. Then, the resulting feeding bran was collected in a paper cup. Fifty Tribolium confusum adults with consistent size were put in the paper cup. Three replicates were set for each treatment. Control check was set. The treated test materials were put in an observation room under controlled conditions. After 72 h, the number of dead and surviving adults was investigated.

The subject of data set [2] is western flower thrips nymphs. Nature of the data set: Determination of activity against western flower thrips nymphs (sprayed kidney bean leaves, mortality after 72 hours). The conditions noted are these: for mortality at 600 µg/mL / mortality at 10 µg/mL / mortality at 100 µg/mL: Frankliniella occidentalis; for mortality at 600 µg/mL: 600 mg/L, read-out: mortality rates against western flower thrips nymphs; for mortality at 10 µg/mL / mortality at 100 µg/mL: read-out: Mortality (%) against Western Flower Thrips Nymphs. The method, then: as §1
Fresh kidney bean leaves cultured in the glasshouse were selected and uniformly sprayed with 1 ml of the test liquid by using a handheld Airbrush. The leaves were dried naturally and placed in a test tube. Fifteen tidy and healthy western flower thrips nymphs were put into the leaves. Three replicates were set for each treatment. The water treatment was set as control check. After the treatment, the treated tube were placed in a chamber of 24° C., 60%-70% relative humidity and day light. After 72 hours, the number of surviving insects was investigated, and the mortality was calculated.

In another data set the test system is diamondback moth. Nature of the data set: Determination of activity against diamondback moth (cabbage leaf disc dip, mortality after 72 hours). The conditions noted are these: Plutella xylostella, foliar, 10 mg/L, second instar, read-out: mortality rates against diamondback moth. The method, then:
as §1
The leaves of cabbage grown in greenhouse were selected, removed the surface waxy layers, punched into circular leaf discs with a diameter of 2 cm by using a puncher, and dipped into a solution of the required concentration of test compounds for 10 seconds. After dried in shade, the circular leaf discs were placed in a 9 cm diameter petri dish provided with filter paper. Ten regular healthy test insects (second instar) were put into the leaf discs. Four replicates were set for each treatment. The pure water treatment was set as control check. The treated discs were placed in a chamber of 24° C., 60%-70% relative humidity and day light. After 72 hours, the number of surviving insects was investigated, and the mortality rate was calculated.

The subject of a further data set is armyworm. Nature of the data set: Determination of activity against armyworm (corn leaf dip, mortality after 72 hours). The conditions noted are these: foliar, 10 mg/L, third instar, read-out: mortality rates against armyworm. As to the method: as §1
The middle leaves of fresh corns were cut into small sections of 3 cm, and dipped into a solution of the required concentration of test compounds for 10 seconds. After dried in shade, the middle leaves were placed in a 9 cm diameter petri dish provided with filter paper. Fourteen regular healthy test insects (third instar) were put into the leaves. Four replicates were set for each treatment. The pure water treatment was set as control check. The treated discs were placed in a chamber of 24° C., 60%-70% relative humidity and day light. After 72 hours, the number of surviving insects was investigated, and the mortality rate was calculated.

For data set [3], the system named is Tetranychus cinnabarinus adults. Nature of the data set: Determination of acaricidal activity (spray on bean plant leaves with adult spider mites, mortality after 72 hours). Particulars: after 72 hours, read-out: Mortality (%) against Tetranychus Cinnabarinus Adult. As to the method:
as §1
The adult spider mites were put into two true leaves of bean plants. After the number of mites was investigated, the solution of certain concentrations of test compounds was sprayed by using a handheld Airbrush. Three replicates were set for each treatment. Then the leaves were maintained in a standard observation room. After 72 hours, the number of surviving mites was investigated, and the mortality rate was calculated. Compounds I-41, KC3, KC4 and MC were selected for parallel determination of activity against Tetranychus cinnabarinus adults.

On to `O=C(Nc1cccc(C(=O)Nc2c(I)cc(C(F)(C(F)(F)F)C(F)(F)F)cc2OC(F)F)c1F)c1ccc2c(c1)OC(F)(F)O2` [Compound I-1], for which the mortality at 600 µg/mL in data set [1] (after 72 h) and in data set [2] (after 72 hours) was > 90% each time. For the same compound, the mortality at 10 µg/mL in the data set on diamondback moth and with armyworm was > 90% in each case.
On to `CN(C(=O)c1ccc2c(c1)OC(F)(F)O2)c1cccc(C(=O)Nc2c(I)cc(C(F)(C(F)(F)F)C(F)(F)F)cc2OC(F)F)c1F` [Compound I-2], for which the mortality at 600 µg/mL in data set [1] (after 72 h) and in data set [2] (after 72 hours) was > 90% in each case. Besides, the mortality at 10 µg/mL in the data set with diamondback moth and with armyworm was > 90% each time.
`CN(C(=O)c1ccc2c(c1)OC(F)(F)O2)c1cccc(C(=O)Nc2c(Br)cc(C(F)(C(F)(F)F)C(F)(F)F)cc2OC(F)F)c1F` [Compound I-42, N-(2-bromo-6-difluoromethoxy-4-heptafluoroisopropylphenyl)-2-fluoro-3-(N-methyl-2,2-difluoro-1,3-benzodioxole-5-carboxamido) benzamide]: the mortality at 5 µg/mL in data set [1] (5 mg/L, after 72 h) is 81%. In addition, in data set [1] (20 mg/L, after 72 h), the mortality at 20 µg/mL was found to be 100%. The mortality at 600 µg/mL in data set [1] (after 72 h) and in data set [2] (after 72 hours) was > 90% in each case. The mortality at 10 µg/mL in data set [2] (10 mg/L, after 72 hours) is 91%; in the data set on diamondback moth it was > 90%; in the data set with armyworm, > 90%. In addition, the mortality at 100 µg/mL in data set [2] (100 mg/L, after 72 hours) amounted to 100%.
In the case of `CCN(C(=O)c1ccc2c(c1)OC(F)(F)O2)c1cccc(C(=O)Nc2c(Br)cc(C(F)(C(F)(F)F)C(F)(F)F)cc2OC(F)F)c1F` [Compound I-43, N-(2-bromo-6-difluoromethoxy-4-heptafluoroisopropylphenyl)-2-fluoro-3-(N-ethyl-2,2-difluoro-1,3-benzodioxole-5-carboxamido) benzamide], the mortality at 600 µg/mL in data set [1] (after 72 h) and in data set [2] (after 72 hours) was > 90% each time. Further, the mortality at 10 µg/mL in the data set on diamondback moth and in the data set on armyworm was > 90% in each case.
For `CCCCN(C(=O)c1ccc2c(c1)OC(F)(F)O2)c1cccc(C(=O)Nc2c(Br)cc(C(F)(C(F)(F)F)C(F)(F)F)cc2OC(F)F)c1F` [Compound I-46, N-(2-bromo-6-difluoromethoxy-4-heptafluoroisopropylphenyl)-2-fluoro-3-(N-n-butyl-2,2-difluoro-1,3-benzodioxole-5-carboxamido) benzamide], the mortality at 600 µg/mL in data set [1] (after 72 h) and in data set [2] (after 72 hours) was > 90% each time. Besides, the mortality at 10 µg/mL in the data set with diamondback moth and with armyworm was > 90% each time.
For the compound `O=C(Nc1c(Br)cc(C(F)(C(F)(F)F)C(F)(F)F)cc1OC(F)F)c1cccc(N(CC2CC2)C(=O)c2ccc3c(c2)OC(F)(F)O3)c1F` [Compound I-50, N-(2-bromo-6-difluoromethoxy-4-heptafluoroisopropylphenyl)-2-fluoro-3-(N-cyclopropylmethyl-2,2-difluoro-1,3-benzodioxole-5-carboxamido) benzamide], the mortality at 600 µg/mL in data set [1] (after 72 h) and in data set [2] (after 72 hours) was > 90% in each case. Moreover, the mortality at 10 µg/mL in the data set with diamondback moth and in the data set with armyworm was > 90% in each case.
In the case of `CC(C)=CCCC(C)CCN(C(=O)c1ccc2c(c1)OC(F)(F)O2)c1cccc(C(=O)Nc2c(Br)cc(C(F)(C(F)(F)F)C(F)(F)F)cc2OC(F)F)c1F` (stereo not shown) [Compound I-57], the mortality at 600 µg/mL in data set [1] (after 72 h) and in data set [2] (after 72 hours) was > 90% each time. Moreover, the mortality at 10 µg/mL in the data set with diamondback moth and in the data set on armyworm was > 90% throughout.
On to `CSCCCN(C(=O)c1ccc2c(c1)OC(F)(F)O2)c1cccc(C(=O)Nc2c(Br)cc(C(F)(C(F)(F)F)C(F)(F)F)cc2OC(F)F)c1F` [Compound I-60, N-(2-bromo-6-difluoromethoxy-4-heptafluoroisopropylphenyl)-2-fluoro-3-(N-(3-methylthiopropyl)-2,2-difluoro-1,3-benzodioxole-5-carboxamido) benzamide], for which the mortality at 600 µg/mL in data set [1] (after 72 h) and in data set [2] (after 72 hours) was > 90% in each case. Also, the mortality at 10 µg/mL in the data set on diamondback moth and in the data set with armyworm was > 90% each time.
For the compound `CN(C(=O)c1ccc2c(c1)OC(F)(F)O2)c1cccc(C(=O)Nc2c(Br)cc(C(F)(C(F)(F)F)C(F)(F)F)cc2OC(F)(F)F)c1F` [Compound I-62, N-(2-bromo-4-heptafluoroisopropyl-6-trifluoromethoxyphenyl)-2-fluoro-3-(N-methyl-2,2-difluoro-1,3-benzodioxole-5-carboxamido) benzamide], the mortality at 600 µg/mL in data set [1] (after 72 h) and in data set [2] (after 72 hours) was > 90% throughout. Moreover, the mortality at 10 µg/mL in the data set with diamondback moth and with armyworm was > 90% each time.
Regarding `O=C(Nc1cccc(C(=O)Nc2c(Cl)cc(C(F)(C(F)(F)F)C(F)(F)F)cc2OC(F)F)c1F)c1ccc2c(c1)OC(F)(F)O2` [Compound I-81], the mortality at 600 µg/mL in data set [1] (after 72 h) and in data set [2] (after 72 hours) was > 90% each time. Further, the mortality at 10 µg/mL in the data set on diamondback moth and in the data set with armyworm was > 90% throughout.
On to `CN(C(=O)c1ccc2c(c1)OC(F)(F)O2)c1cccc(C(=O)Nc2c(Cl)cc(C(F)(C(F)(F)F)C(F)(F)F)cc2OC(F)F)c1F` [Compound I-82], for which the mortality at 600 µg/mL in data set [1] (after 72 h) and in data set [2] (after 72 hours) was > 90% each time. Further, the mortality at 10 µg/mL in the data set on diamondback moth and with armyworm was > 90% throughout.
As to `O=C(Nc1cccc(C(=O)Nc2c(OC(F)F)cc(C(F)(C(F)(F)F)C(F)(F)F)cc2C(F)(F)F)c1F)c1ccc2c(c1)OC(F)(F)O2` [Compound I-121], the mortality at 600 µg/mL in data set [1] (after 72 h) and in data set [2] (after 72 hours) was > 90% each time. The mortality at 10 µg/mL in the data set with diamondback moth and in the data set on armyworm was > 90% each time.
On to `CN(C(=O)c1ccc2c(c1)OC(F)(F)O2)c1cccc(C(=O)Nc2c(OC(F)F)cc(C(F)(C(F)(F)F)C(F)(F)F)cc2C(F)(F)F)c1F` [Compound I-122], for which the mortality at 600 µg/mL in data set [1] (after 72 h) and in data set [2] (after 72 hours) was > 90% each time. In addition, the mortality at 10 µg/mL in the data set with diamondback moth and with armyworm was > 90% each time.
`CNC(=O)c1cc(C#N)cc(C)c1NC(=O)c1cc(Br)nn1-c1ncccc1Cl` [Cyantraniliprole, reference compound]: in data set [1] (72 h), the mortality at 5 µg/mL turned out to be 0% and the mortality at 20 µg/mL stood at 5%. In addition, in data set [2] (72 h), the mortality at 10 µg/mL came out at 25% and the mortality at 100 µg/mL came to 85%.
Consider `O=C(Nc1cccc(C(=O)Nc2c(Br)cc(C(F)(C(F)(F)F)C(F)(F)F)cc2Br)c1F)c1ccc2c(c1)OC(F)(F)O2` [KC1, reference compound], for which, in data set [2] (10 mg/L, after 72 hours), the mortality at 10 µg/mL is 15%. For the same compound, the mortality at 100 µg/mL in data set [2] (100 mg/L, after 72 hours) came out at 85%.
Consider `CN(C(=O)c1ccc2c(c1)OC(F)(F)O2)c1cccc(C(=O)Nc2c(Br)cc(C(F)(C(F)(F)F)C(F)(F)F)cc2Br)c1F` [KC2, reference compound], for which the mortality at 5 µg/mL in data set [1] (5 mg/L, after 72 h) was determined as 70%. Further, the mortality at 20 µg/mL in data set [1] (20 mg/L, after 72 h) is 76%. In data set [2] (10 mg/L, after 72 hours), the mortality at 10 µg/mL was 59%. In addition, in data set [2] (100 mg/L, after 72 hours), the mortality at 100 µg/mL came out at 90%.
With `CN(C(=O)c1ccccc1)c1cccc(C(=O)Nc2c(Br)cc(C(F)(C(F)(F)F)C(F)(F)F)cc2OC(F)F)c1F` [MC], the mortality at 10 µg/mL in data set [2] (10 mg/L, after 72 hours) came out at 72%; in data set [3] (10 mg/L), 0%. Further, the mortality at 100 µg/mL in data set [2] (100 mg/L, after 72 hours) came out at 76%; in data set [3] (100 mg/L) it was 0%. Besides, in data set [3] (600 mg/L), the mortality at 600 µg/mL stood at 0%.
With Spinetoram [reference compound], the “Mortality (%) against Western Flower Thrips Nymphs” value turned out to be 90% in data set [2] (10 mg/L, after 72 hours) and 100% in data set [2] (100 mg/L, after 72 hours).
